From patent publication US9248111B2, “Therapeutic approaches for treating parkinson's disease” (PHARNEXT, priority 2011, dated 2016)
“Also recorded” adds a separate entry of the source.

How the values were obtained:
[1] = tested on: dopaminergic neuronal terminals in the left striatum; assay: [3H]-mazindol labelling of dopaminergic terminals in striatum after 6-OHDA lesion; format: in vivo, rat; conditions: FIG. 16B: BCL-ACP 3.75 and 0.25 mg/kg bid; L-DOPA 8 mg/kg with benserazide 12.5 mg/kg; vs non-treated 6-OHDA rats
Experimental: (§1) Wistar rats (5 weeks) were used after an acclimatization period of at least 5 days. Surgery was performed under ketamine (50 mg/kg) and xylazine (10 mg/kg). Animals received an unilateral injection of 12 μg of 6-OHDA (sigma Aldrich) dissolved in 6 μl of 0.9% sterile NaCl containing 0.1% ascorbic acid (to protect 6-OHDA from oxidation), at the flow rate of 1 μl/min, in the left substantia nigra pars compacta. The stereotaxic coordinates of the injection site will be: anteroposterior+2.2 mm, lateral 2.0 mm, dorsoventral+3 mm with the incisor bar at +5.0 mm above the interaural plane, according to the rat stereotaxic atlas by De Groot (1959).
(§2) The first administration of treatment or vehicle has been performed the day before the stereotaxic injection of 6-OHDA (for the lesion groups) or vehicle and all along the 15 days preceding the behavioral tests. […] During the study and for each animal, the volume of per os administrations was determined on the basis of the mean body weight of the animals of the corresponding group. Body weights will be determined twice a week and the volume of administration will thus be adjusted consequently. […]
The loss of DA terminals in the striatum was assessed as an index of the extent of the dopaminergic denervation by analysis of [^3H]-mazindol binding to dopamine uptake sites. […]

[2] = tested on: dopaminergic neuron cell bodies of subtantia nigra pars compacta; assay: Quantification of TH positive neurons in substantia nigra after 6-OHDA lesion; format: in vivo, rat; conditions: FIG. 16A: BCL-ACP 3.75 and 0.25 mg/kg bid; L-DOPA 8 mg/kg with benserazide 12.5 mg/kg; vs non-treated 6-OHDA rats
Experimental: as §1, §2
TH positive neurons were counted in a set of the three sections centered on the track of the 6-OHDA injection needle in the SN, covering almost all the SN. […] Cell counted is done using a microscope connected to a computer image analysis system by a CDD camera.

N[C@@H](Cc1ccc(O)c(O)c1)C(=O)O [L-DOPA, levodopa]
density of dopaminergic neuronal terminals in the left striatum (OD of [3H]-mazindol labelling) [1]: failed to inhibit; also recorded: not observed
number of dopaminergic neurons in the left (intoxicated) part of SN [2]: failed to inhibit; also recorded: not observed
